{"source": "patent US12492243B2", "about": "“DNA antibody constructs for use against Pseudomonas aeruginosa” (priority 2016, dated 2025)", "test_system": "Pseudomonas aeruginosa strain 6077", "assay": "Lethal pneumonia challenge in BALB/c mice", "assay_type": "in vivo", "conditions": "MEM 2.3 mg/kg alone or DMAb-DVSF3 100 μg, lethal PA 6077", "protocol": "The unrelated dengue virus DMAb-DVSF3^20 was included as a control. A fourth group of animals received an intraperitoneal (IP) injection of purified protein IgG ABC123 (2 mg/kg) on day −1 before challenge. […] Animals were monitored for 6 days following intranasal challenge for survival as described in^16. Briefly, animals were anesthetized with ketamine and xylazine followed by intranasal administration of the bacterial inoculum contained in 0.05 ml. […] IL-1β, IL-6 and KC/GRO were quantified from the supernatant of lung homogenates using a multiplex kit (Meso Scale Diagnostics) according to the manufactures instructions. For DMAb and meropenem (MEM) combination experiments, MEM was administered subcutaneously 4 hours after infection."}
{"compound": "C[C@@H](O)[C@H]1C(=O)N2C(C(=O)O)=C(S[C@@H]3CN[C@H](C(=O)N(C)C)C3)[C@H](C)[C@H]12", "note": "[MEM, meropenem, reference compound]", "values": [{"measurement": "survival, DMAb and meropenem combination experiment", "value": "did not survive"}]}
